Biological target: human μ opiate receptor (Homo sapiens, UniProt P35372)
Experiment: μ opiate receptor binding assay with [3H]-naloxone, membrane preparation of CHO-K1 cells (WGA-SPA beads)
Conditions: mean; read-out: Ki (μ) mean [μm]

Chain of human μ opiate receptor (P35372 whole entry): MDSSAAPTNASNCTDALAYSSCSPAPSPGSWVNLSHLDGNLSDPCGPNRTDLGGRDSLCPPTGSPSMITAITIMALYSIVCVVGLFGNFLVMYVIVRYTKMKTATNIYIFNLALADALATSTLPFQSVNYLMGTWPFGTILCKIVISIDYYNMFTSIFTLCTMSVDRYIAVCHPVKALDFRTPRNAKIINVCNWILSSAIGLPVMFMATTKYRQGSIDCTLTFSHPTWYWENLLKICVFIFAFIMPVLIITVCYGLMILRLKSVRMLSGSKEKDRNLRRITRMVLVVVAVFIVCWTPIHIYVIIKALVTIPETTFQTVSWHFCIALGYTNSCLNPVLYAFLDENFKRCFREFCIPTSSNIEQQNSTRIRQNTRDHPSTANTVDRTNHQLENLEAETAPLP

Compound	Ki [nM]
CN(C)C1(C(=O)c2cccs2)CCC2(CCN(Cc3ccccc3)C2)CC1 (single isomer, unassigned) [Example No. 71, [3-Benzyl-8-(dimethylamino)-3-azaspiro[4.5]decan-8-yl]-thiophen-2-ylmethanone]	127
CN(C)C1(c2cccs2)CCC2(CCN(Cc3ccncc3)C2=O)CC1 (stereo not shown) [Example 85]	260
CN(C)C1(C(=O)c2ccccc2)CCC2(CCN(Cc3ccccc3)C2)CC1 (single isomer, unassigned) [Example No. 70, [3-Benzyl-8-(dimethylamino)-3-azaspiro[4.5]decan-8-yl]-phenylmethanone]	465
CN(C)C1(C(=O)c2cccs2)CCC2(CCN(Cc3ccccc3)C2)CC1 (single isomer, unassigned) [Example No. 72, [3-Benzyl-8-(dimethylamino)-3-azaspiro[4.5]decan-8-yl]-thiophen-2-ylmethanone]	805
CCCCC1(N(C)C)CCC2(CC1)CC(=O)N(Cc1ccccc1)C2 (stereo not shown) [Example No. 124, 3-Benzyl-8-butyl-8-(dimethylamino)-3-azaspiro[4.5]decan-2-one]	2970

Same assay, conditions: read-out: MOP Ki

Compound	Ki [nM]
CN(C)[C@]1(c2cnccn2)CC[C@]2(CC1)CC(=O)N(CCCC(N)=O)C2 [SC-1010, Cis-4-(8-Dimethylamino-3-oxo-8-pyrazin-2-yl-2-azaspiro[4.5]decan-2-yl)-butyramide]	825
COC(=O)c1ccc(N2C[C@]3(CC[C@@](c4ccccc4)(N(C)C)CC3)CC2=O)cc1 [SC-1074, Cis-4-(8-Dimethylamino-3-oxo-8-phenyl-2-azaspiro[4.5]decan-2-yl)-benzoic acid methyl ester]	420
CN(C)[C@]1(c2ccccc2)CC[C@]2(CC1)CC(=O)N(CC(C)(C)C(=O)NCCc1cncnc1)C2 [SC-1184, Cis-3-(8-Dimethylamino-3-oxo-8-phenyl-2-azaspiro[4.5]decan-2-yl)-2,2-dimethyl-N-(2-pyrimidin-5-yl-ethyl)-propionamide]	320
CN(C)[C@]1(c2ccccn2)CC[C@]2(CC1)CC(=O)N(CCCC(N)=O)C2 [SC-1013, Cis-4-(8-Dimethylamino-3-oxo-8-pyridin-2-yl-2-azaspiro[4.5]decan-2-yl)-butyramide]	2430

Test system: not given
Experiment: not given
Conditions: not given

Compound	melting point [°C]
Cc1ccc(C2(N(C)C)CCC3(CC2)CC(=O)N(C(=O)OC(C)(C)C)C3)s1 (stereo not shown)	165 to 167

— US10214520B2, “Substituted azaspiro(4.5)decane derivatives” (priority 2014, dated 2019)
